Data taken from US11208412B2 (DAEGU-GYEONGBUK MEDICAL INNOVATION FOUNDATION, priority 2017, dated 2021).

What was measured:
Experiment in all cases: Kinase selectivity, DiscoverX scanMAX Kinase assay panel (% control)
Type in all cases: binding
[1] = target: T1, kinases of the scanMAX Kinase assay panel (Homo sapiens, UniProt Q9NYL2); details: kinase ZAK; 1 uM in DMSO
T1 construct: purchased DiscoverX Co. (contract measurement) scanMAX Kinase assay panel
Procedure, shortened: (§1)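 Single-point screen, 1 uM cpd in DMSO. % ctrl = (cpd − pos ctrl)/(neg ctrl − pos ctrl)×100; pos ctrl = 0%, DMSO neg ctrl = 100%. Hit cutoff <35%.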

[2] = target: T2, kinases of the scanMAX Kinase assay panel (Homo sapiens, UniProt P21860); details: ERBB3; 1 uM
T2 construct: purchased DiscoverX Co. (contract measurement) scanMAX Kinase assay panel
Procedure, shortened: as §1

[3] = target: T3, kinases of the scanMAX Kinase assay panel (Homo sapiens, UniProt Q9NRP7); details: kinase STK36; 1 uM in DMSO
T3 construct: purchased DiscoverX Co. (contract measurement) scanMAX Kinase assay panel
T3 sequence (Q9NRP7 1-1315): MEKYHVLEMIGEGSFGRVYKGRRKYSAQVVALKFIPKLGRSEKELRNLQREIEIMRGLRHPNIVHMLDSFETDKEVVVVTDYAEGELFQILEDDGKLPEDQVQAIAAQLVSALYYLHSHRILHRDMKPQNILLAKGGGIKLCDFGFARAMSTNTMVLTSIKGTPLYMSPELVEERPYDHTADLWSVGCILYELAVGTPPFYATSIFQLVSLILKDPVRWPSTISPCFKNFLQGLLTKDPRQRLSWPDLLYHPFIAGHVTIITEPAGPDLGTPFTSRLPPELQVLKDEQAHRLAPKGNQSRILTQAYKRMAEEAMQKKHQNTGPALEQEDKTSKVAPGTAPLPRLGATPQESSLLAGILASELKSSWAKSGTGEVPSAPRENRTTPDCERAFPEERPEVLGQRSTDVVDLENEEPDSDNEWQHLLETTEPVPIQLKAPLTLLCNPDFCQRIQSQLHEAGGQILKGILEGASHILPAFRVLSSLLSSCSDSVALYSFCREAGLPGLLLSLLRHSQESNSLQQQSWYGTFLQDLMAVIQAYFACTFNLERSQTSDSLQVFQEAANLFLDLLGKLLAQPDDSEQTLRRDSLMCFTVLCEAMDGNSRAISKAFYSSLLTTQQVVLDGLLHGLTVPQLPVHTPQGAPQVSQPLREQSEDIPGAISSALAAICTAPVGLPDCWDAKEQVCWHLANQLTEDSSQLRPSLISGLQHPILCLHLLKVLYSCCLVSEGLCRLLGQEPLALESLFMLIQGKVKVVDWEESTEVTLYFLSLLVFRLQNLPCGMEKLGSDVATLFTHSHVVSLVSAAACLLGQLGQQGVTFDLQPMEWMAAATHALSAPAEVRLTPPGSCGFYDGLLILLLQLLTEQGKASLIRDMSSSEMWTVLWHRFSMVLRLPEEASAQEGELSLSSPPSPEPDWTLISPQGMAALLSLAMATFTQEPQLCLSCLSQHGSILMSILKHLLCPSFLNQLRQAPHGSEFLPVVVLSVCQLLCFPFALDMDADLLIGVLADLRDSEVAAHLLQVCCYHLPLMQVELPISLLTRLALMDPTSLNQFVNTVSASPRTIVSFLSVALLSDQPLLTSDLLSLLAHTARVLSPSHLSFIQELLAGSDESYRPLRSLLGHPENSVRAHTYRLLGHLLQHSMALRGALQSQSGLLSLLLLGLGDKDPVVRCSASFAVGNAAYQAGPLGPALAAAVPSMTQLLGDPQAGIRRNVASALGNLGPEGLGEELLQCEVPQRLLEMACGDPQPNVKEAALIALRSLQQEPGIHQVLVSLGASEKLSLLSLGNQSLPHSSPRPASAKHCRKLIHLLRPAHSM
Procedure, shortened: as §1

[4] = target: T4, kinases of the scanMAX Kinase assay panel (Homo sapiens, UniProt P07949, V804M); details: kinase RET(V804M); 1 uM in DMSO
T4 construct: purchased DiscoverX Co. (contract measurement) scanMAX Kinase assay panel
Procedure, shortened: as §1

[5] = target: T5, kinases of the scanMAX Kinase assay panel (Homo sapiens, UniProt O14757); details: CHEK1; 1 uM
T5 construct: purchased DiscoverX Co. (contract measurement) scanMAX Kinase assay panel
T5 sequence (O14757 1-476): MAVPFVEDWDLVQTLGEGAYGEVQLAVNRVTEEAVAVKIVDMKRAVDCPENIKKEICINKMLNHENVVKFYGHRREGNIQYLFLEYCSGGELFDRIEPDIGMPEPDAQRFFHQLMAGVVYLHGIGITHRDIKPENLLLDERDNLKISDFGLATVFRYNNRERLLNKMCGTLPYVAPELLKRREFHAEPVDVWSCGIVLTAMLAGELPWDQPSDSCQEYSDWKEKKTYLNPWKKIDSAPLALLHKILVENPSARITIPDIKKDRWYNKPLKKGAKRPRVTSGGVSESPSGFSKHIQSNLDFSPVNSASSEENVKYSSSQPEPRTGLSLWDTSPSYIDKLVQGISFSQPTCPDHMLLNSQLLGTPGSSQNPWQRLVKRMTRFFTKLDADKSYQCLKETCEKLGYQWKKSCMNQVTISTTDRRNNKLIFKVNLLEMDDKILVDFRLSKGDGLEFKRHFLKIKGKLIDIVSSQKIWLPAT
Procedure, shortened: as §1

[6] = target: T6, kinases of the scanMAX Kinase assay panel (Homo sapiens, UniProt P11802); details: 1 uM
T6 construct: purchased DiscoverX Co. (contract measurement) scanMAX Kinase assay panel
Procedure, shortened: as §1

[7] = target: T7, kinases of the scanMAX Kinase assay panel (Homo sapiens, UniProt Q9HC98); details: NEK6; 1 uM
T7 construct: purchased DiscoverX Co. (contract measurement) scanMAX Kinase assay panel
Procedure, shortened: as §1

[8] = target: T8, kinases of the scanMAX Kinase assay panel (Homo sapiens, UniProt Q00536); details: PCTK1; 1 uM
T8 construct: purchased DiscoverX Co. (contract measurement) scanMAX Kinase assay panel
Procedure, shortened: as §1

T2 sequence (P21860 20-1342): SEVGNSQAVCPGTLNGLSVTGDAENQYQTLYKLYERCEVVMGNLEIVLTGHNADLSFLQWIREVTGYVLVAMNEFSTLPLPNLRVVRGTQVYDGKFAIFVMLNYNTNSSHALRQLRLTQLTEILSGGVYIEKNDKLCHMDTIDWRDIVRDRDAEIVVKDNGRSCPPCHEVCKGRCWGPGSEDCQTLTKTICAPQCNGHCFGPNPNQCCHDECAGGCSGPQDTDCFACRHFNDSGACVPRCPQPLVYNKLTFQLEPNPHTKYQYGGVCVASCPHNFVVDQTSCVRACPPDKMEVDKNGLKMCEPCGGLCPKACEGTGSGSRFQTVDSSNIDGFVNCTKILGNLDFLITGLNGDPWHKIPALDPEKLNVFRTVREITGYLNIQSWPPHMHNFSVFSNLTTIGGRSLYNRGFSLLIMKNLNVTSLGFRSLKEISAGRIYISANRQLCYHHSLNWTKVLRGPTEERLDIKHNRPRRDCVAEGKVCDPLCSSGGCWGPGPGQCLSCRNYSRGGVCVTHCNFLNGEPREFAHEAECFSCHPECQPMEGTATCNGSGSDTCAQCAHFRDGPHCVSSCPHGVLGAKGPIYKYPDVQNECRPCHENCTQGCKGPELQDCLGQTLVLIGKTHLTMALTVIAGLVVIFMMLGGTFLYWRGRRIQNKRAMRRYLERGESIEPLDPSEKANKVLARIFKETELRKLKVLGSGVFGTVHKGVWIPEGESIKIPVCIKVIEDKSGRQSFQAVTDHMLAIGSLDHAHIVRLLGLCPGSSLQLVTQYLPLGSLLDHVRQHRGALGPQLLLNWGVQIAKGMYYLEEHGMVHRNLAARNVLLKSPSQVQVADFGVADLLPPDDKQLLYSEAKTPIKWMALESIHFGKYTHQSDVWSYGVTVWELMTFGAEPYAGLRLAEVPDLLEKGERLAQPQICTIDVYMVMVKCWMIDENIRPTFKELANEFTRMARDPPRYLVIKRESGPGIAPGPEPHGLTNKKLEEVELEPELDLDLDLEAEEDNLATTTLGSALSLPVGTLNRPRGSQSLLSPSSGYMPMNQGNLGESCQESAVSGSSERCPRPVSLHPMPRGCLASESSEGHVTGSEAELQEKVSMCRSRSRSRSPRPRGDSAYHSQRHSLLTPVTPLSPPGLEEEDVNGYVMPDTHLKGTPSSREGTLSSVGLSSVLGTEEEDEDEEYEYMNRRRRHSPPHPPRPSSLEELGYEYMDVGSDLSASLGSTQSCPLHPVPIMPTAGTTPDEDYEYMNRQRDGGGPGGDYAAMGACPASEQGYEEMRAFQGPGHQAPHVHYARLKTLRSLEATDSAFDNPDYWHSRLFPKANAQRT
T7 sequence (Q9HC98 whole entry): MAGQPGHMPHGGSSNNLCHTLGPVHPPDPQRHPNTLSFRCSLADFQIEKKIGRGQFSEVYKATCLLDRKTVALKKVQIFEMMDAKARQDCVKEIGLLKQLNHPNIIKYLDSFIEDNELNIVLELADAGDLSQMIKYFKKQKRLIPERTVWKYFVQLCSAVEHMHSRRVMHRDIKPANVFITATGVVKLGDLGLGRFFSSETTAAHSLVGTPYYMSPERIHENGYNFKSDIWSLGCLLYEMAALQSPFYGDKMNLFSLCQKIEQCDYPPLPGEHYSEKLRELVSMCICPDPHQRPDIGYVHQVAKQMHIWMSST
T1 sequence (Q9NYL2 whole entry): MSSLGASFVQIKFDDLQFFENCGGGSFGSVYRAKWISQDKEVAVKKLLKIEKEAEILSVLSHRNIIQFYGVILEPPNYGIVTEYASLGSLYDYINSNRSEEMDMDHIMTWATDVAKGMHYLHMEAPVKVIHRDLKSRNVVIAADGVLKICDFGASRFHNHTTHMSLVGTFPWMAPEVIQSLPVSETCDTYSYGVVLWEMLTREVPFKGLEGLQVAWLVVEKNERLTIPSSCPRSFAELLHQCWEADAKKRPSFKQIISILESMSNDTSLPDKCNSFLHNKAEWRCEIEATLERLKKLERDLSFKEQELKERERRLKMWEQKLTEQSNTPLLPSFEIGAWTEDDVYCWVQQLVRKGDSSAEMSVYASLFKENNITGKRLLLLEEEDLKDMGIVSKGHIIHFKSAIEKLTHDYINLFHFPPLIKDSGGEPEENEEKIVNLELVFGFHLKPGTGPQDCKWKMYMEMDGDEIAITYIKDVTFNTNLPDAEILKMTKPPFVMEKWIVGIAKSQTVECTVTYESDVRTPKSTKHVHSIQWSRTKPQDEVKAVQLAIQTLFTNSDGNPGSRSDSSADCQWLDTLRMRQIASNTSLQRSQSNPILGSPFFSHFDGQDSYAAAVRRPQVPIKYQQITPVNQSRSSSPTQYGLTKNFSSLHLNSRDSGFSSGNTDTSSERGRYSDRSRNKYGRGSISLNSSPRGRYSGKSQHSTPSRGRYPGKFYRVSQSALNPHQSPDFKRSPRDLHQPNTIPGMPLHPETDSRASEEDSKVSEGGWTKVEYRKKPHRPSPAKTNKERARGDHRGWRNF
T8 sequence (Q00536 whole entry): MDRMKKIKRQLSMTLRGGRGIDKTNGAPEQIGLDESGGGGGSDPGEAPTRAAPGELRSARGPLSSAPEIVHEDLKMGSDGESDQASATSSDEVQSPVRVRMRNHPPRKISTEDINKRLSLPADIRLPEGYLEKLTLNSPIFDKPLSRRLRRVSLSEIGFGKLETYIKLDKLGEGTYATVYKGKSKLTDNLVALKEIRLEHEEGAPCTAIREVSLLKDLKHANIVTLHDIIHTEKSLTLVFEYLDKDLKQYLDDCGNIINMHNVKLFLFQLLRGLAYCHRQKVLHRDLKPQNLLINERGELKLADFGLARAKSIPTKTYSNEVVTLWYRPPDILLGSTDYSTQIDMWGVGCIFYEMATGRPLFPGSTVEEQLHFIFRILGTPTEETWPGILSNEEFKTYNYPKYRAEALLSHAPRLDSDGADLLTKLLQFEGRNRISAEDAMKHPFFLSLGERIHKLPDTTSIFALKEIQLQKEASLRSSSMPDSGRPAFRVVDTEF
T4 sequence (P07949 29-1114 V804M): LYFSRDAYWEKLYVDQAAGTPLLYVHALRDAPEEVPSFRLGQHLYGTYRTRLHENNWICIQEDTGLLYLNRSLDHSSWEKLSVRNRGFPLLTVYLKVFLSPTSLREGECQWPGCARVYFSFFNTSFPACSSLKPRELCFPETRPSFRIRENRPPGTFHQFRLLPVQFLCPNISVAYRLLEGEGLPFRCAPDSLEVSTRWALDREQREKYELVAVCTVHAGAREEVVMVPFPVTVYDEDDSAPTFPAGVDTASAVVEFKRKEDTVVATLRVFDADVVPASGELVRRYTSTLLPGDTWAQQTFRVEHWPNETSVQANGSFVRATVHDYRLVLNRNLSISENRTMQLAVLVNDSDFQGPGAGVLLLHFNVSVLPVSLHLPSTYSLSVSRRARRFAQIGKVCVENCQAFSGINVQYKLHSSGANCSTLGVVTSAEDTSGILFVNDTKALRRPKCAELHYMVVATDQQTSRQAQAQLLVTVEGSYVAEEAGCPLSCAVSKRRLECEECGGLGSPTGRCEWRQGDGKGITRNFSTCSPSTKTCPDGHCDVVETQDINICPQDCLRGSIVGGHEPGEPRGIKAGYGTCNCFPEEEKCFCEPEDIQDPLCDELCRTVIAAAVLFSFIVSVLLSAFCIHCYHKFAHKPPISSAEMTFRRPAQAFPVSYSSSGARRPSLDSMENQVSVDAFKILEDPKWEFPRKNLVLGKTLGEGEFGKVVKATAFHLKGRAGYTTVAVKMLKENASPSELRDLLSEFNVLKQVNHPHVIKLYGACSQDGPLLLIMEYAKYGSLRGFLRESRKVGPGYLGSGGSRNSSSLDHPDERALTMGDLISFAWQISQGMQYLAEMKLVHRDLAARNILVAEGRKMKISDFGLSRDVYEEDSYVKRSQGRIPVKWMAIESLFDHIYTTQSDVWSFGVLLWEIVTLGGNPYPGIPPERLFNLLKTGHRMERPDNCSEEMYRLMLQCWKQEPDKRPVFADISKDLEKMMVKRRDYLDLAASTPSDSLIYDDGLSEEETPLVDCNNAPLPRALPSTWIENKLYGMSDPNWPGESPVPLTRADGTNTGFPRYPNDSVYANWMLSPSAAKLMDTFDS
T6 sequence (P11802 whole entry): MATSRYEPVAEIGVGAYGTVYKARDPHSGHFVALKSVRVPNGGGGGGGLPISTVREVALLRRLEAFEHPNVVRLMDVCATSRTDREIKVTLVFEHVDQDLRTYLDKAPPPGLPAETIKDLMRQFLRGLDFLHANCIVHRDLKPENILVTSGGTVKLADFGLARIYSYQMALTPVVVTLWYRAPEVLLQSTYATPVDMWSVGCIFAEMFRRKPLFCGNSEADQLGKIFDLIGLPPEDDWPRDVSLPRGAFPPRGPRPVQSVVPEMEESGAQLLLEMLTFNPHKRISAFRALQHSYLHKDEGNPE

Compound	remaining binding at 1 µM [1] [%]	remaining binding at 1 µM [2] [%]	remaining binding at 1 µM [3] [%]	remaining binding at 1 µM [4] [%]	remaining binding at 1 µM [5] [%]	remaining binding at 1 µM ([6]; CDK4-cyclinD1) [%]	remaining binding at 1 µM ([6]; CDK4-cyclinD3) [%]	remaining binding at 1 µM ([6]; CDK4) [%]	remaining binding at 1 µM [7] [%]	remaining binding at 1 µM [8] [%]
CNc1nc(Nc2ccc(C(=O)N3CCOCC3)cc2OC)nc2[nH]cc(C#N)c12 [Example 1, 2-((2-methoxy-4-(morpholine-4-carbonyl)phenyl)amino)-4-(methylamino)-7H-pyrrolo[2,3-d]pyrimidine-5-carbonitrile]	100	68	97	89	85	74	96	61	95	77
CC1(Nc2nc(Nc3cnn([C@H]4CCN(C5COC5)C[C@@H]4F)c3Cl)nc3[nH]cc(C#N)c23)CC1 [Example 52, 2-((5-chloro-1-((3S,4S)-3-fluoro-1-(oxetane-3-yl)piperidine-4-yl)-1H-pyrazole-4-yl)amino)((1-methylcyclopropyl)amino)-7H-pyrrolo[2,3-d]pyrimidine-5-carbonitrile]	88	100	85	0	26	59	100	100	93	100
CCNc1nc(Nc2ccc(C(=O)N3CCC(N4CCOCC4)CC3)cc2OC)nc2[nH]cc(C(F)(F)F)c12 [Example 104, (4-((4-(ethylamino)-5-(trifluoromethyl)-7H-pyrrolo[2,3-d]pyrimidine-2-yl)amino)-3-methoxyphenyl)(4-morpholinopiperidine-1-yl)methanone]	100	100	100	87	100	55	53	100	100	100
